Reference: patent US8258098B2, “Antitumoral treatments” (Pharma Mar, S.A., priority 2006, dated 2012)

Key:
[1] = system: UACC-257 human melanoma cells; experiment: Antitumor efficacy against subcutaneous-implanted melanoma xenograft; assay type: in vivo, female, athymic NCr-nu/nu mice; details: UACC-257 xenograft, median tumor weight; Aplidine 60 μg/kg/dose IP q1d × 9, Carboplatin 50 mg/kg/dose IV q4d × 3
Method: The animals were housed in microisolator cages, up to five per cage in a 12-hour light/dark cycle. Six-weeks-old female, athymic NCr-nu/nu mice were acclimated in the laboratories for one week prior to the experiment.
Each mouse was inoculated subcutaneously near the right flank with UACC-257 human melanoma cells from an in vitro cell culture using a 23-gauge needle. Each mouse received 2×10^7 cells resuspended in 0.2 mL of Matrigel®. A vial with UACC-257 human melanoma frozen cells was thawed and cultured in RPMI 1640 medium containing low glucose (2,000 mg/L), sodium bicarbonate ([…]), 2 mM L-glutamine, and 10% fetal bovine serum (complete medium), and grown in a +37° C. incubator in a humidified atmosphere with 5% CO2 until the necessary number of cells for inoculation of mice was obtained. Cells were harvested after four passages in culture. […] The cell count and viability were determined with a Beckman Coulter VI CELL XR cell counter and viability analyzer. […]
Animals were observed daily and clinical signed were noted. The s.c. tumors were measured and the animals were weighed twice weekly starting with the first day of treatment, Day 13. Tumor volume was determined by caliper measurements (mm) and using the formula for an ellipsoid sphere: L×W^2/2=mm^3, where L and W refer to the larger and smaller perpendicular dimensions collected at each measurement. […]

[2] = system: MRI-H187 melanoma tumor xenografts; experiment: Net tumor volume in tumor xenografts; assay type: in vivo, female athymic mice; details: Aplidine 50 μg/kg, DTIC 40 mg/kg, Carboplatin 25 mg/kg, i.p.
Excerpt: (§1) Athymic nude female mice were received from Harlan Sprague Dawley, Madison, Wis. at 4-5 weeks of age. Mice were acclimated to the laboratory for at least one week prior to implantation of tumor. Animals were housed in static cages with food and water allowed ad libitum. Experimental animals were implanted with either tumor fragments derived from transplantation established human tumors or with cells obtain directly from in vitro culture. Tumors were implanted subcutaneously on the right flank on Day 0.
(§2) Tumor size measurements were recorded twice weekly beginning on day 4 or 5 using vernier calipers. The formula to calculate volume for a prolate ellipsoid was used to estimate tumor volume from 2-dimensional tumor measurements: tumor volume (mm^3)=(length×width^2)÷2. Assuming unit density, volume was converted to weight (i.e., 1 mm^3=1 mg). […] Treatments were initiated and administered on an individual body weight basis. A dose range finding study was performed on each tumor model to determine the appropriate dose level of each compound used in the combination studies.

[3] = system: LOX-IMVI melanoma tumor xenografts; experiment: Net tumor volume in tumor xenografts; assay type: in vivo, female athymic mice; details: DTIC 30 mg/kg, Carboplatin 25 mg/kg, i.p.
Excerpt: as §1, §2

N.N.O=C([O-])C1(C(=O)[O-])CCC1.[Pt+2] [carboplatin]
% T/C on day 23 [1]: 95%
% T/C on day 70 [1]: 60%
Net Tumor Volume ± S.E.M. ([2]; MRI-H187, DAY 24): 213 ± 32 mg
Net Tumor Volume ± S.E.M. ([2]; MRI-H187, DAY 27): 301 ± 50 mg
Net Tumor Volume ± S.E.M. ([2]; MRI-H187, DAY 34): 540 ± 99 mg
Net Tumor Volume ± S.E.M. ([2]; MRI-H187, DAY 38): 793 ± 132 mg
Net Tumor Volume ± S.E.M. ([2]; MRI-H187, DAY 41): 917 ± 138 mg
Net Tumor Volume ± S.E.M. ([2]; MRI-H187, DAY 46): 1303 ± 237 mg
Net Tumor Volume ± S.E.M. ([2]; MRI-H187, DAY 52): 1603 ± 288 mg
Net Tumor Volume ± S.E.M. ([2]; MRI-H187, DAY 55): 1989 ± 373 mg
Net Tumor Volume ± S.E.M. ([2]; MRI-H187, DAY 59): 2292 ± 487 mg
Net Tumor Volume ± S.E.M. ([2]; MRI-H187, DAY 62): 2659 ± 492 mg
Net Tumor Volume ± S.E.M. ([2]; MRI-H187, DAY 66): 2723 ± 519 mg
Net Tumor Volume ± S.E.M. ([3]; DAY 6, Aplidine 50 μg/kg): 107 ± 3 mg
Net Tumor Volume ± S.E.M. ([3]; DAY 8, Aplidine 50 μg/kg): 347 ± 43 mg
Net Tumor Volume ± S.E.M. ([3]; DAY 12, Aplidine 50 μg/kg): 1167 ± 117 mg
Net Tumor Volume ± S.E.M. ([3]; DAY 14, Aplidine 50 μg/kg): 2936 ± 543 mg
Net Tumor Volume ± S.E.M. ([3]; DAY 19, Aplidine 50 μg/kg): 4598 ± 1182 mg
